Data taken from patent publication US9775844B2, “Heterocyclic compounds and uses thereof” (Infinity Pharmaceuticals, Inc., priority 2014, dated 2017).

Columns and labels:
PI3K α = PI3K α (Homo sapiens (Human), UniProt P42336); assay: PI3-Kinase Promega ADP-Glo Max assay; format: biochemical
PI3K β = PI3K β (Homo sapiens (Human), UniProt P42338); assay: PI3-Kinase Promega ADP-Glo Max assay; format: biochemical
PI3K δ = PI3K δ (Homo sapiens (Human), UniProt O00329); assay: PI3-Kinase Promega ADP-Glo Max assay; format: biochemical
PI3K γ = PI3K γ (Homo sapiens (Human), UniProt P48736); assay: PI3-Kinase Promega ADP-Glo Max assay; format: biochemical
PI3K-δ in RAJI cells = PI3K-δ in RAJI cells (Homo sapiens (Human), UniProt O00329); assay: RAJI p110 δ assay (PI3K-δ selective cellular assay, phospho-AKT); format: cell-based; conditions: phospho-AKT; read-out: RAJI p110 δ assay IC50
[1] = molecular target: PI3K-γ in RAW264.7 macrophages (Mus musculus (Mouse), UniProt Q9JHG7); assay: Raw264.7 p110 γ assay (PI3K-γ selective cellular assay, C5a-stimulated phospho-AKT); format: cell-based; conditions: for IC50: phospho-AKT, read-out: Raw264.7 p110 γ assay IC50
Chain of PI3K-γ in RAW264.7 macrophages (Q9JHG7 whole entry): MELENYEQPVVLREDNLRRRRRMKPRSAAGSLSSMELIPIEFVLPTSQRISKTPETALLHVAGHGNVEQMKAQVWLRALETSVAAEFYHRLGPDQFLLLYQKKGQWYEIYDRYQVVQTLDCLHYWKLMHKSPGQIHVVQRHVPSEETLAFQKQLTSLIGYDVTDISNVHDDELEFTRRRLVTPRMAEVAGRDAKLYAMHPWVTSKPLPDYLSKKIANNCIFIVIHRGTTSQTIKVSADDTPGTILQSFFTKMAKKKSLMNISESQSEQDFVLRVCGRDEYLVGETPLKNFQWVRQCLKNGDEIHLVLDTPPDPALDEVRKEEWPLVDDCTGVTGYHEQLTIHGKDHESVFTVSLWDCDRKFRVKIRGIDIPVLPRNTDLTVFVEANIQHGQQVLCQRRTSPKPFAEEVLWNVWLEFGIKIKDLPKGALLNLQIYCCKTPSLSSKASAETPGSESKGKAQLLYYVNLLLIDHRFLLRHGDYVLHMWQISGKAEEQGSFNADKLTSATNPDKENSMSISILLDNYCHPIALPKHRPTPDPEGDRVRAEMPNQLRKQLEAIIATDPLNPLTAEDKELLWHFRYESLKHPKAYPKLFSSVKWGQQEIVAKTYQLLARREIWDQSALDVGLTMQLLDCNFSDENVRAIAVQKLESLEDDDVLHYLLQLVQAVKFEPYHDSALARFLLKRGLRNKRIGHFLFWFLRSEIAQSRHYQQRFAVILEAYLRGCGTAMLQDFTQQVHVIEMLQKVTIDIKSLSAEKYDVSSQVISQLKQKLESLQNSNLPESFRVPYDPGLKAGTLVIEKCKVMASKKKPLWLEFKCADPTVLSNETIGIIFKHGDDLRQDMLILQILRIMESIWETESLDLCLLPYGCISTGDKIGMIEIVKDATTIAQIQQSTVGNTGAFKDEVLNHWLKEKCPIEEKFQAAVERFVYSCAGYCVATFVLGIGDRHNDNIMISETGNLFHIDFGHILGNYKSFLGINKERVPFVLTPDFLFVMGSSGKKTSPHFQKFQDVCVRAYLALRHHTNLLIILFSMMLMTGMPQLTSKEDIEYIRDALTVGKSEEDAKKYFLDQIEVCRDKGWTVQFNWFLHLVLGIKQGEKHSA

Chain of PI3K γ (P48736 whole entry): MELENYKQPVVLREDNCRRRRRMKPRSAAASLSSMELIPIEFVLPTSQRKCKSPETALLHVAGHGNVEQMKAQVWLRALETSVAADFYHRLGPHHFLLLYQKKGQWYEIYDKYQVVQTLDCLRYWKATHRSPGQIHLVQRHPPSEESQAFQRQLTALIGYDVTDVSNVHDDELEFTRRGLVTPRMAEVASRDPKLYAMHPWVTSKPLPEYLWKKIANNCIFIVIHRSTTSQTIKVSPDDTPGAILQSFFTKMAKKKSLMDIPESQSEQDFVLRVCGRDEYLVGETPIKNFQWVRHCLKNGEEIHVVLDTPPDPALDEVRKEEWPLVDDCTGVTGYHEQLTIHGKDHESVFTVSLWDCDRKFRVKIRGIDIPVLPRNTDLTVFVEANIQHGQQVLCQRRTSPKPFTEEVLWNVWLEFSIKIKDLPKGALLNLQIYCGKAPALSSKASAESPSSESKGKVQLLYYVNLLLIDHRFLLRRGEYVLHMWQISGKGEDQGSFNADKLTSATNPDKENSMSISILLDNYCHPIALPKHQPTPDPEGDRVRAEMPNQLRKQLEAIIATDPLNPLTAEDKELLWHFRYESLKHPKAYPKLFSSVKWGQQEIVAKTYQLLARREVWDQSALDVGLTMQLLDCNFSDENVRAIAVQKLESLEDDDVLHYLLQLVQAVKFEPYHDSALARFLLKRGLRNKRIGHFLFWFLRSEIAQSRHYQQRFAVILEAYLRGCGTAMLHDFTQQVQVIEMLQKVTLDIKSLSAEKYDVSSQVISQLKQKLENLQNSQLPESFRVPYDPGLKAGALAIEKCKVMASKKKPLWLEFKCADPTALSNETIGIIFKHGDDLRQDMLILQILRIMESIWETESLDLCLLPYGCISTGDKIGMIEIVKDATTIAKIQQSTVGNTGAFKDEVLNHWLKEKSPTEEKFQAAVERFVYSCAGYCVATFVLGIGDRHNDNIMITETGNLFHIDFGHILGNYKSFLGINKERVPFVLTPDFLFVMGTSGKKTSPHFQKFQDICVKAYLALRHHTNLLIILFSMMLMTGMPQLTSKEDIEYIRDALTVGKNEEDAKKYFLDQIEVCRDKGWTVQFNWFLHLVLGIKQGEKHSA
Chain of PI3K β (P42338 whole entry): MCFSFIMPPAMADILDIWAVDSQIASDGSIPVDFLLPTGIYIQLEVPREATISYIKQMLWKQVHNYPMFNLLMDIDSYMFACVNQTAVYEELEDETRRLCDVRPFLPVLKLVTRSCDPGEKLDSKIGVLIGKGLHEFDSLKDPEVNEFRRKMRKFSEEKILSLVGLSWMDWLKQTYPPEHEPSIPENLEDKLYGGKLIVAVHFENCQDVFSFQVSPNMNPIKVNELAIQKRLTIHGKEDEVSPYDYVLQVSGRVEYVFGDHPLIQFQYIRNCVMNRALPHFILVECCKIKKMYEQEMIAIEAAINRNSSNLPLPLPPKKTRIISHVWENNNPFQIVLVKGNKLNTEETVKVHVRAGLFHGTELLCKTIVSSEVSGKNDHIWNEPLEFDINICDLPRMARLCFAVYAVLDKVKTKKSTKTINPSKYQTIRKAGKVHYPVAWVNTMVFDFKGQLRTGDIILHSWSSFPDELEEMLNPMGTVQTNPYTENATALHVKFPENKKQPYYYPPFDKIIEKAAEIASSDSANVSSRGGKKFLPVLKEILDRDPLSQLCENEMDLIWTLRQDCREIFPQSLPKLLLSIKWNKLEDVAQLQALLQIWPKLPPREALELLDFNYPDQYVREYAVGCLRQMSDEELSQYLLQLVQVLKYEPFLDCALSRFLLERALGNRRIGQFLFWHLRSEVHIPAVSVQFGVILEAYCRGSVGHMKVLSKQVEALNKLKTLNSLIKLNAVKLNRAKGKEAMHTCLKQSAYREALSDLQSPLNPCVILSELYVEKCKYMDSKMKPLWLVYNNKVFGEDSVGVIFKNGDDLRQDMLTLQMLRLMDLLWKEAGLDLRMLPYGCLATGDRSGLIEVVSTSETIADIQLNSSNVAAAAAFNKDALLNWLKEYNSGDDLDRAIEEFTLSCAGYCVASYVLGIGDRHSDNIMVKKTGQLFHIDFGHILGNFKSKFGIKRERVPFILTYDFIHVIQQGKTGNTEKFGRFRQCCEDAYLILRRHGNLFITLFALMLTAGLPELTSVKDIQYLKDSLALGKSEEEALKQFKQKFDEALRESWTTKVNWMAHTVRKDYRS
Chain of PI3K β (P27986 whole entry partner): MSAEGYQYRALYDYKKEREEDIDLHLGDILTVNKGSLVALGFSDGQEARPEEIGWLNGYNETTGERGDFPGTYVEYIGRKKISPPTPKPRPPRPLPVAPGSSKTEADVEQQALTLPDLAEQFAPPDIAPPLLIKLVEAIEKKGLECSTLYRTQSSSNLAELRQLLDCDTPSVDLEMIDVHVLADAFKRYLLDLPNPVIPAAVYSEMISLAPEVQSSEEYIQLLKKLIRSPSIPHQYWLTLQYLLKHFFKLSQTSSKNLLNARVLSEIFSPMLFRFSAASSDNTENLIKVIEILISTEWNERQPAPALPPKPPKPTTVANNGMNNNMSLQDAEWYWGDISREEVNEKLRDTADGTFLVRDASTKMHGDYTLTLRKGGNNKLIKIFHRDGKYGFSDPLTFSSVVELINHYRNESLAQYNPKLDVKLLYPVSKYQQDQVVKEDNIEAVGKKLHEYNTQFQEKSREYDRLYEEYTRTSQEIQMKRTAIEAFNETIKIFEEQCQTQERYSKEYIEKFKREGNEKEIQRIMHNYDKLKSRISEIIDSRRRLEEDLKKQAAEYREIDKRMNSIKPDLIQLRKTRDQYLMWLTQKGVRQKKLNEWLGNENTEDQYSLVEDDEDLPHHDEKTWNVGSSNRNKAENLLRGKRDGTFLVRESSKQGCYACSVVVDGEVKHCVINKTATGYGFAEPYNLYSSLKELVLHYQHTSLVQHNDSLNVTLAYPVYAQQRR
Chain of PI3K-δ in RAJI cells (O00329 whole entry): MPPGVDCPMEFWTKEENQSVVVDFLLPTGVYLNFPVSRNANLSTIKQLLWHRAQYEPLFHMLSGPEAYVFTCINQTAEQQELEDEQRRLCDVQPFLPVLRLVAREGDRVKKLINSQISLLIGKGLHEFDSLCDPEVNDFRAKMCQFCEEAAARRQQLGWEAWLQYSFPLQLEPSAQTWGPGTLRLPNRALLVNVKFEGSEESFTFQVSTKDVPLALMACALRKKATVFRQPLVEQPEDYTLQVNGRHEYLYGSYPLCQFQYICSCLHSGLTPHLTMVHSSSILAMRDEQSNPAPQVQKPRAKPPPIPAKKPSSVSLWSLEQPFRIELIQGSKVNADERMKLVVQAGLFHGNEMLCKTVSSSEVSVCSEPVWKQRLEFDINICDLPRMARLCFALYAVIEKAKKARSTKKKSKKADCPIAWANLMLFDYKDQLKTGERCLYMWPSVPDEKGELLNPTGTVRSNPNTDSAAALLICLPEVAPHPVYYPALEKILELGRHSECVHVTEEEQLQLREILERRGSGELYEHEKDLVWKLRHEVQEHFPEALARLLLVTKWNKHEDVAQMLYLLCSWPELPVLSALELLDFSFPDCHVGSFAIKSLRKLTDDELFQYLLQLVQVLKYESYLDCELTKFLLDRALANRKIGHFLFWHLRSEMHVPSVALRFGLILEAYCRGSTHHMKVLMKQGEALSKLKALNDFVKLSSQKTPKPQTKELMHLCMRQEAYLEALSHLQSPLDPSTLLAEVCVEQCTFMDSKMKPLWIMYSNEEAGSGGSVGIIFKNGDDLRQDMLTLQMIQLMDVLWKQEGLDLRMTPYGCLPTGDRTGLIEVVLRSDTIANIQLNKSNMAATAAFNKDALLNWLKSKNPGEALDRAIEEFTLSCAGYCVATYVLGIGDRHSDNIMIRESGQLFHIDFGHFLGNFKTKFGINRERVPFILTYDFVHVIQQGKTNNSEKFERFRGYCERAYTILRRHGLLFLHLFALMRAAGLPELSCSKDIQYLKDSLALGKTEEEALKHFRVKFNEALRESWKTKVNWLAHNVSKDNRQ
Chain of PI3K-δ in RAJI cells (P27986 whole entry partner): as the sequence (P27986 whole entry partner) above

IC50 (PI3K α) [µM] | IC50 (PI3K β) [µM] | IC50 (PI3K δ) [µM] | IC50 (PI3K γ) [nM] | PI3K δ/PI3K γ IC50 (selectivity) (PI3K γ) | IC50 (PI3K-δ in RAJI cells) [nM] | RAJIδ/Raw264.7 γ IC50 (selectivity) [1] | IC50 [1] [nM] | Compound
5 to 10 | 5 to 10 | 5 to 10 | 500 to 1000 | X (X = 10 to <50) | 1000 to 10000 | W (W = >1 to <10) | 100 to 10000 | C[C@H](NC(=O)c1c(N)nn2cccnc12)c1cc2cccc(C#CC(C)(C)N)c2c(=O)n1-c1ccccc1 [Compound 8]
5 to 10 | 5 to 10 | 5 to 10 | 100 to 500 | X (X = 10 to <50) | 1000 to 10000 | X (X = 10 to <50) | 50 to 100 | C[C@H](NC(=O)c1c(N)nn2cccnc12)c1cc2cccc(C#CC(C)(C)O)c2c(=O)n1-c1ccccc1 [Compound 11]
5 to 10 | 1 to 5 | 1 to 5 | 1 to 100 | X (X = 10 to <50) | 100 to 500 | X (X = 10 to <50) | 1 to 50 | COCC#Cc1cccc2cc([C@H](C)NC(=O)c3c(N)nn4cccnc34)n(-c3ccccc3)c(=O)c12 [Compound 12]
5 to 10 | 1 to 5 | 0.5 to 1 | 1 to 100 | X (X = 10 to <50) | 1 to 100 | W (W = >1 to <10) | 1 to 50 | C[C@H](NC(=O)c1c(N)nn2cccnc12)c1cc2cccc(C#CCO)c2c(=O)n1-c1ccccc1 [Compound 13]
1 to 5 | 1 to 5 | 0.001 to 0.5 | 1 to 100 | X (X = 10 to <50) | 1 to 100 | W (W = >1 to <10) | 1 to 50 | C[C@H](NC(=O)c1c(N)nn2cccnc12)c1cc2cccc(C#CCN3CCCC3=O)c2c(=O)n1-c1ccccc1 [Compound 14]
5 to 10 | 5 to 10 | 0.5 to 1 | 1 to 100 | X (X = 10 to <50) | 100 to 500 | W (W = >1 to <10) | 1 to 50 | C[C@H](NC(=O)c1c(N)nn2cccnc12)c1cc2cccc(C#C[C@@H](C)O)c2c(=O)n1-c1ccccc1 [Compound 15]
5 to 10 | 1 to 5 | 1 to 5 | 1 to 100 | Y (Y = 50 to <850) | 100 to 500 | X (X = 10 to <50) | 1 to 50 | C[C@H](O)C#Cc1cccc2cc([C@H](C)NC(=O)c3c(N)nn4cccnc34)n(-c3ccccc3)c(=O)c12 [Compound 16]
5 to 10 | 5 to 10 | 5 to 10 | 100 to 500 | Y (Y = 50 to <850) | 100 to 500 | Y (Y = 50 to <850) | 1 to 50 | C[C@H](NC(=O)c1c(N)nn2cccnc12)c1cc2cccc(C#Cc3cccnc3)c2c(=O)n1-c1ccccc1 [Compound 17]
5 to 10 | 5 to 10 | 5 to 10 | 100 to 500 | Y (Y = 50 to <850) | 100 to 500 | X (X = 10 to <50) | 1 to 50 | COc1ncc(C#Cc2cccc3cc([C@H](C)NC(=O)c4c(N)nn5cccnc45)n(-c4ccccc4)c(=O)c23)cn1 [Compound 18]
5 to 10 | 5 to 10 | 5 to 10 | 100 to 500 | Y (Y = 50 to <850) | 500 to 1000 | Y (Y = 50 to <850) | 1 to 50 | Cc1nn(C)cc1C#Cc1cccc2cc([C@H](C)NC(=O)c3c(N)nn4cccnc34)n(-c3ccccc3)c(=O)c12 [Compound 19]
5 to 10 | 5 to 10 | 1 to 5 | 1 to 100 | X (X = 10 to <50) | 100 to 500 | X (X = 10 to <50) | 1 to 50 | C[C@H](NC(=O)c1c(N)nn2cccnc12)c1cc2cccc(C#Cc3ccc(=O)n(C)c3)c2c(=O)n1-c1ccccc1 [Compound 20]
1 to 5 | 1 to 5 | 5 to 10 | 1000 to 5000 | W (W = >1 to <10) | 100 to 500 | W (W = >1 to <10) | 1 to 50 | C[C@H](NC(=O)c1c(N)nn2cccnc12)c1cc2cccc(C#Cc3cncn3C)c2c(=O)n1C1CC1 [Compound 23]
1 to 5 | 1 to 5 | 1 to 5 | 1000 to 5000 | W (W = >1 to <10) | 100 to 500 | W (W = >1 to <10) | 1 to 50 | C[C@H](NC(=O)c1c(N)nn2cccnc12)c1cc2cccc(C#CC3CC3)c2c(=O)n1C1CC1 [Compound 24]
5 to 10 | 5 to 10 | 5 to 10 | 100 to 500 | X (X = 10 to <50) | 1 to 100 | Y (Y = 50 to <850) | 1 to 50 | C[C@H](NC(=O)c1c(N)nn2cccnc12)c1cc2cccc(C#CC3CCOCC3)c2c(=O)n1-c1ccccc1 [Compound 27]
5 to 10 | 5 to 10 | 5 to 10 | 1000 to 5000 | W (W = >1 to <10) | 100 to 500 | X (X = 10 to <50) | 1 to 50 | COc1cc(C#Cc2cccc3cc([C@H](C)NC(=O)c4c(N)nn5cccnc45)n(-c4ccccc4)c(=O)c23)ccn1 [Compound 28]

Compound | IC50 (PI3K α) [µM] | IC50 (PI3K β) [µM] | IC50 (PI3K δ) [µM] | IC50 (PI3K γ) [nM] | PI3K δ/PI3K γ IC50 (selectivity) (PI3K γ) | IC50 (PI3K-δ in RAJI cells) [nM] | RAJIδ/Raw264.7 γ IC50 (selectivity) [1] | IC50 [1] [nM]
C[C@H](NC(=O)c1c(N)nn2cccnc12)c1cc2cccc(C#CC3CC3)c2c(=O)n1-c1ccccc1 [Compound 9] | 1 to 5 | 1 to 5 | 1 to 5 | 100 to 500 | X (X = 10 to <50) | 100 to 500 | Y (Y = 50 to <850) | 1 to 50
C[C@H](NC(=O)c1c(N)nn2cccnc12)c1cc2cccc(C#CCN3CCOCC3)c2c(=O)n1-c1ccccc1 [Compound 10] | 5 to 10 | 5 to 10 | 5 to 10 | 100 to 500 | X (X = 10 to <50) | 1000 to 10000 | X (X = 10 to <50) | 1 to 50
COC(C)C#Cc1cccc2cc([C@H](C)NC(=O)c3c(N)nn4cccnc34)n(-c3ccccc3)c(=O)c12 (some centres unmarked) [Compound 22] | 5 to 10 | 5 to 10 | 5 to 10 | 100 to 500 | X (X = 10 to <50) | 1000 to 10000 | X (X = 10 to <50) | 1 to 50
C[C@H](NC(=O)c1c(N)nn2cccnc12)c1cc2cccc(C#Cc3ccncc3)c2c(=O)n1-c1ccccc1 [Compound 26] | 5 to 10 | 5 to 10 | 5 to 10 | 100 to 500 | X (X = 10 to <50) | 100 to 500 | Y (Y = 50 to <850) | 1 to 50
